# Data taken from PMC5382265, “Macrocycle peptides delineate locked-open inhibition mechanism for microorganism phosphoglycerate mutases” (Nature Communications, 2017).
# Read-outs that look alike come from different tables or passages of the source. Positions of bridges follow the written chain, without caps; N, C: chain ends. Non-standard residues stand in square brackets, D forms with d. Residues, ends and D or L forms follow the SMILES beside them.
# What was measured:
# C. elegans iPGM = target: T1, C. elegans iPGM (Caenorhabditis elegans, UniProt G5EFZ1); experiment: PGM enzyme-coupled bioluminescent end point assay (Kinase-Glo Plus); type: biochemical
# T1 sequence (G5EFZ1 1-539): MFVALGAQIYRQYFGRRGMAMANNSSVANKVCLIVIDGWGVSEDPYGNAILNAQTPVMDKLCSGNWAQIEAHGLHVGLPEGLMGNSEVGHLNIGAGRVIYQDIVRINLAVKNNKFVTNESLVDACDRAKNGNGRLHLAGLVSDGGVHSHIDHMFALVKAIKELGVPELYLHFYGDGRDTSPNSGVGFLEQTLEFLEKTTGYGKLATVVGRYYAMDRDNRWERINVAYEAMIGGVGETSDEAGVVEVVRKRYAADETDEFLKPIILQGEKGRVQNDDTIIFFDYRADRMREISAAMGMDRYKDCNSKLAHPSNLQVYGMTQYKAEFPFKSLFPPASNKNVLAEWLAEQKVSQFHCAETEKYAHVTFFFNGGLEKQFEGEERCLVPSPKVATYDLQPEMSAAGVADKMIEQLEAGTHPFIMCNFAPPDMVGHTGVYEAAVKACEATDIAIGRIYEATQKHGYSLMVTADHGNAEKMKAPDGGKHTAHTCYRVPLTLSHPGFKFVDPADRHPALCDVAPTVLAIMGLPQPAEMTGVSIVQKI
# O. volvulus iPGM = O. volvulus iPGM (Onchocerca volvulus, UniProt I6LDA6); experiment: biochemical
# E. coli iPGM = E. coli iPGM (Escherichia coli, UniProt P37689); experiment: biochemical
# B. malayi iPGM = B. malayi iPGM (Brugia malayi, UniProt Q4VWF8); experiment: biochemical
# [1] = pIC50, apparent C. elegans iPGM
# [2] = pIC50, apparent O. volvulus iPGM
# Sequence of E. coli iPGM (P37689 whole entry, looked up): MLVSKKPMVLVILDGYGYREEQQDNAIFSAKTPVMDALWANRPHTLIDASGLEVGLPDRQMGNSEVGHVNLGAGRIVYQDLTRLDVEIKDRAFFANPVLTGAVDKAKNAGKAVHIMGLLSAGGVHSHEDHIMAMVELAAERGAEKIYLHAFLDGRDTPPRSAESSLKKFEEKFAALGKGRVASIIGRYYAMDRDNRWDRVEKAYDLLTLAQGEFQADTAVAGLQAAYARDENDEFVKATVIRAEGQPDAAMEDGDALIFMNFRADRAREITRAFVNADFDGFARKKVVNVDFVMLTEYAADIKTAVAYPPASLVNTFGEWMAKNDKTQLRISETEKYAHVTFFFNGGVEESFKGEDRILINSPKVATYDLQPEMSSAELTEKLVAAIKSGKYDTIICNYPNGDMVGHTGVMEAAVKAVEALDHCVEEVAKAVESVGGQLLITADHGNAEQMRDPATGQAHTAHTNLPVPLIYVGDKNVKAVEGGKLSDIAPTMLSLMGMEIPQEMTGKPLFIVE
# Sequence of B. malayi iPGM (Q4VWF8 whole entry, looked up): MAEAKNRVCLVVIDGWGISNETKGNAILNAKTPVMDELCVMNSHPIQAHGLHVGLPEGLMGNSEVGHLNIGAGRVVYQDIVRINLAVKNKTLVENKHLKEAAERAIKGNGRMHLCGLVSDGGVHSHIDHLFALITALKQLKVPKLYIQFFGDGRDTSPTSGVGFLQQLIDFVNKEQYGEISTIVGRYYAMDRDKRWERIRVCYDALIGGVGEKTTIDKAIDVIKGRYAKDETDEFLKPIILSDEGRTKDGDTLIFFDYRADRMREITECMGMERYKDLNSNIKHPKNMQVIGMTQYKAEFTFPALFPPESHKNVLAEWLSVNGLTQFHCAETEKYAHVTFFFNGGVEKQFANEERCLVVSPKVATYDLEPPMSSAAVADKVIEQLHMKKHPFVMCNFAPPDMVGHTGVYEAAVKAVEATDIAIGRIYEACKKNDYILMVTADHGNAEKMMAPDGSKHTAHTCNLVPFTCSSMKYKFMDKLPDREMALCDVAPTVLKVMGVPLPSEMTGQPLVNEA
# Sequence of O. volvulus iPGM (I6LDA6 whole entry, looked up): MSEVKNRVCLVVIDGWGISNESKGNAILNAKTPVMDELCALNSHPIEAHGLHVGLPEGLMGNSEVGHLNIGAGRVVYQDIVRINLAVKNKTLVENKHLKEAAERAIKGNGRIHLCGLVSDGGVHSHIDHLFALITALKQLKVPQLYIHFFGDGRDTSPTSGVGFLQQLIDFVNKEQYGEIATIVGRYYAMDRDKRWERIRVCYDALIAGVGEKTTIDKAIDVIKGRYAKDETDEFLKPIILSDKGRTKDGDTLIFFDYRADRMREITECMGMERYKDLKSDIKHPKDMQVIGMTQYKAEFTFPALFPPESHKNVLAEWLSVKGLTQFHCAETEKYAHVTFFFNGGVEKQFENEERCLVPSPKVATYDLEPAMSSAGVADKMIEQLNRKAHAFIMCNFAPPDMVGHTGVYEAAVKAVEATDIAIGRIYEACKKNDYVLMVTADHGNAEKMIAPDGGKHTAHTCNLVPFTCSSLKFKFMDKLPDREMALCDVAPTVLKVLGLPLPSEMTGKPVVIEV
smiles,measurement,setting,value
CC[C@H](C)[C@@H]1NC(=O)[C@H](CCCNC(=N)N)NC(=O)[C@H](Cc2ccccc2)NC(=O)[C@@H]2CCCN2C(=O)[C@H](CC(N)=O)NC(=O)[C@H](C)NC(=O)[C@H](CC(C)C)NC(=O)[C@H]([C@@H](C)O)NC(=O)[C@H]([C@@H](C)CC)NC(=O)[C@H](Cc2ccc(O)cc2)NC(=O)CSC[C@@H](C(=O)NCC(N)=O)NC(=O)[C@H](Cc2c[nH]cn2)NC(=O)[C@H](CC(C)C)NC1=O [Ce-3] ({CH2CO}-YITLANPFRILHCG-NH2; thioether N-13),IC50,C. elegans iPGM,0.468 µM
same,IC50,"O. volvulus iPGM; pIC50, M O. volvulus iPGM",5.5 µM
same,IC50,"E. coli iPGM; pIC50, apparent E. coli iPGM",537 nM
CC(C)[C@@H]1NC(=O)[C@H](C)NC(=O)[C@@H](Cc2ccc(O)cc2)NC(=O)CSC[C@@H](C(=O)N[C@@H](CCCNC(=N)N)C(=O)N[C@H](C(=O)N[C@@H](CS)C(=O)NCC(N)=O)[C@@H](C)O)NC(=O)[C@H](CC(N)=O)NC(=O)[C@@H]2CCCN2C(=O)[C@H](Cc2c[nH]c3ccccc23)NC1=O [Bm-7] ({CH2CO}-[dY]AVWPNCRTCG-NH2; thioether N-7),IC50,C. elegans iPGM; [1],7.41 µM
same,IC50,O. volvulus iPGM; [2],4.27 µM
same,IC50,"E. coli iPGM; pIC50, apparent E. coli iPGM",7590 nM
same,IC50,"B. malayi iPGM; pIC50, apparent B. malayi iPGM",5.25 µM
C[C@@H](O)[C@H](NC(=O)[C@H](CO)NC(=O)[C@@H]1CSCC(=O)N[C@H](Cc2ccc(O)cc2)C(=O)N2CCC[C@H]2C(=O)N[C@@H](CCC(=O)O)C(=O)N[C@@H](Cc2c[nH]c3ccccc23)C(=O)N2CCC[C@H]2C(=O)N[C@@H](CC(N)=O)C(=O)N1)C(=O)N[C@@H](CS)C(=O)NCC(N)=O [Bm-6] ({CH2CO}-[dY]PEWPNCSTCG-NH2; thioether N-7),IC50,C. elegans iPGM; [1],2.63 µM
same,IC50,O. volvulus iPGM; [2],0.832 µM
same,IC50,"E. coli iPGM; pIC50, apparent E. coli iPGM",2820 nM
same,IC50,"B. malayi iPGM; pIC50, apparent B. malayi iPGM",0.692 µM
CC[C@H](C)[C@@H]1NC(=O)[C@H](CCCNC(=N)N)NC(=O)[C@H](Cc2ccccc2)NC(=O)[C@@H]2CCCN2C(=O)[C@H](CC(N)=O)NC(=O)[C@H](C)NC(=O)[C@H](CC(C)C)NC(=O)[C@H]([C@@H](C)O)NC(=O)[C@H]([C@@H](C)O)NC(=O)[C@H](Cc2ccc(O)cc2)NC(=O)CSC[C@@H](C(=O)NCC(N)=O)NC(=O)[C@H](Cc2c[nH]cn2)NC(=O)[C@H](CC(C)C)NC1=O [Ce-4] ({CH2CO}-YTTLANPFRILHCG-NH2; thioether N-13),IC50,C. elegans iPGM,6.03 µM
same,IC50,"O. volvulus iPGM; pIC50, M O. volvulus iPGM",4.27 µM
CC[C@H](C)[C@@H]1NC(=O)[C@H](CO)NC(=O)[C@H](CCCNC(=N)N)NC(=O)[C@H](CC(N)=O)NC(=O)[C@H](CCC(N)=O)NC(=O)[C@@H](Cc2ccc(O)cc2)NC(=O)CSC[C@@H](C(=O)NCC(N)=O)NC(=O)[C@H](CS)NC(=O)CNC(=O)[C@H](Cc2ccc(O)cc2)NC(=O)[C@H](CC(C)C)NC(=O)[C@H](Cc2c[nH]c3ccccc23)NC1=O [Bm-3] ({CH2CO}-[dY]QNRSIWLYGCCG-NH2; thioether N-12),"pIC50, apparent C. elegans iPGM",C. elegans iPGM,5.05
same,"pIC50, apparent E. coli iPGM",E. coli iPGM,5.03
NC(=O)[C@H](Cc1ccc(O)cc1)NC(=O)[C@@H]1CSCC(=O)N[C@H](Cc2ccc(O)cc2)C(=O)N[C@@H](CC(=O)O)C(=O)N[C@@H](Cc2ccc(O)cc2)C(=O)N2CCC[C@H]2C(=O)NCC(=O)N[C@@H](CC(=O)O)C(=O)N[C@@H](Cc2ccc(O)cc2)C(=O)N1 [Ce-2f] ({CH2CO}-[dY]DYPGDYCY-NH2; thioether N-8),IC50,C. elegans iPGM; pIC50 C. elegans iPGM,51.3 µM
same,IC50,E. coli iPGM; pIC50 E. coli iPGM,25700 nM
CC(=O)N[C@H](Cc1ccc(O)cc1)C(=O)N[C@@H](CC(=O)O)C(=O)N[C@@H](Cc1ccc(O)cc1)C(=O)N1CCC[C@H]1C(=O)NCC(=O)N[C@@H](CC(=O)O)C(=O)N[C@@H](Cc1ccc(O)cc1)C(=O)N[C@@H](CO)C(=O)N[C@@H](Cc1ccc(O)cc1)C(=O)N[C@@H](CC(C)C)C(=O)N[C@@H](Cc1ccc(O)cc1)C(=O)NCC(=O)N[C@H](C(=O)N[C@@H](CS)C(=O)NCC(N)=O)[C@@H](C)O [Ce-L2] (Ac-[dY]DYPGDYSYLYGTCG-NH2),IC50,C. elegans iPGM; pIC50 C. elegans iPGM,1.15 µM
same,IC50,E. coli iPGM; pIC50 E. coli iPGM,1320 nM
same,IC50,B. malayi iPGM; pIC50 B. malayi iPGM,12.9 µM
